Where two headings read alike, the source gives them in different places.
Key:
[1] = tested on: P. falciparum Dd2 (PfLuc) line expressing firefly luciferase, asexual blood stage; test: microbe, parasite or virus in culture; type: cell-based, Plasmodium falciparum; conditions: Plasmodium falciparum
P. falciparum Dd2 = test: SYBR green I asexual blood stage proliferation assay (96 h); type: cell-based, Plasmodium falciparum; conditions: Plasmodium falciparum, DD2, 11-pt dose response, 96hr
[2] = DD2, read-out: CDD P. falciparum Luciferase ABS 11-pt Reconfirmation Dose Response (48hr): IC50 (μM), 11-pt dose response, 48hr
[3] = DD2, 8-pt dose response, 96hr, read-out: CDD P. falciparum Luciferase ABS 8-pt Reconfirmation Dose Response (96hr): IC50
[4] = DD2, 8-pt dose response, 96hr, read-out: CDD P. falciparum Luciferase ABS 8-pt Reconfirmation Dose Response (96hr): Maximum inhibition (%)
[5] = DD2, 11-pt dose response, 48hr, read-out: CDD P. falciparum Luciferase ABS 11-pt Reconfirmation Dose Response (48hr): Maximum inhibition (%)
[6] = DD2, 11-pt dose response, 96hr, read-out: CDD P. falciparum Luciferase ABS 11-pt Reconfirmation Dose Response (96hr): IC50
[7] = DD2, 11-pt dose response, 96hr, read-out: CDD P. falciparum Luciferase ABS 11-pt Reconfirmation Dose Response (96hr): Maximum inhibition (%)
[8] = Sybr Green I, read-out: CDD P. falciparum Sybr Green I ABS 11-pt Reconfirmation Dose Response (96hr): IC50
[9] = Sybr Green I, read-out: CDD P. falciparum Sybr Green I ABS 11-pt Reconfirmation Dose Response (96hr): Maximum inhibition (%)
[10] = 96 h incubation, Dd2 luciferase, read-out: 96 hour Pfluc IC50
[11] = DD2, read-out: P. falciparum Luciferase ABS 11-pt Reconfirmation Dose Response (48hr): IC50, 11-pt dose response, 48hr
[12] = DD2, 8-pt dose response, 96hr, read-out: P. falciparum Luciferase ABS 8-pt Reconfirmation Dose Response (96hr): IC50
[13] = DD2, 8-pt dose response, 96hr, read-out: P. falciparum Luciferase ABS 8-pt Reconfirmation Dose Response (96hr): Maximum inhibition (%)
[14] = DD2, 11-pt dose response, 96hr, read-out: P. falciparum Luciferase ABS 11-pt Reconfirmation Dose Response (96hr): IC50
[15] = DD2, 11-pt dose response, 96hr, read-out: P. falciparum Luciferase ABS 11-pt Reconfirmation Dose Response (96hr): Maximum inhibition (%)
[16] = read-out: P. falciparum Sybr Green I ABS 11-pt Reconfirmation Dose Response (96hr): IC50
[17] = read-out: P. falciparum Sybr Green I ABS 11-pt Reconfirmation Dose Response (96hr): Maximum inhibition (%)
[18] = DD2, 11-pt dose response, 48hr, read-out: P. falciparum Luciferase ABS 11-pt Reconfirmation Dose Response (48hr): Maximum inhibition (%)

Structure (SMILES) | IC50 [1, 2] [µM] | IC50 [1, 3] [µM] | Emax [1, 4] [%] | Emax [1, 5] [%] | IC50 [1, 6] [µM] | Emax [1, 7] [%] | IC50 (P. falciparum Dd2; [8]) [nM] | Emax (P. falciparum Dd2; [9]) [%] | IC50 [1, 10] [µM] | IC50 [1, 11] [µM] | IC50 [1, 12] [µM] | Emax [1, 13] [%] | IC50 [1, 14] [µM] | Emax [1, 15] [%] | IC50 (P. falciparum Dd2; [16]) [nM] | Emax (P. falciparum Dd2; [17]) [%] | Emax [1, 18] [%]
CN1CCC(O)(CNCc2ccc(F)c(C(F)(F)F)c2)CC1 [DDD01065665] | > 12.5 | 0.71 | 90.5 | 33.7 | 4.45 | 88.8 | 3170 | 86.1 |  |  |  |  |  |  |  |  | 
CC1(C)CN(C(CNC2=NCCN2)c2ccc(Cl)cc2)CCO1 (centres unmarked) [DDD01066238] | 0.786 | 0.55 | 80.3 | 64.5 | 3.52 | 81.2 | 3750 | 50.5 |  |  |  |  |  |  |  |  | 
O=C(CC1CCCC1)NCCNCc1cccc2c1OCCO2 [DDD01067280] | > 12.5 | 1.09 | 84.7 | 64.2 | > 1.39 | 89.2 | > 4160 | 67 |  |  |  |  |  |  |  |  | 
c1cc2c(cc1C1(CNC3=NCCN3)CCCC1)OCCO2 [DDD01067440] | 8.77 | 0.57 | 86.8 | 68.7 | 1.63 | 92 | 1240 | 65.6 |  |  |  |  |  |  |  |  | 
Clc1ccc(C2(CNC3=NCCN3)CC2)cc1 [DDD01067441] | 1.96 | 0.55 | 95.1 | 96.7 | 0.613 | 99.9 | 760 | 101 |  |  |  |  |  |  |  |  | 
Clc1ccc(C2(CNC3=NCCN3)CCCC2)cc1 [DDD01067443] | 5.56 | 0.25 | 94.9 | 90 | 0.995 | 98.3 | 2260 | 98.5 | 1 |  |  |  |  |  |  |  | 
Clc1ccc(C2(CNC3=NCCN3)CCCCC2)cc1 [DDD01067446] | 2.9 | 0.22 | 96.3 | 97.1 | 0.731 | 99.6 | 1290 | 99.8 |  |  |  |  |  |  |  |  | 
Fc1ccc(C2(CNC3=NCCN3)CCCC2)cc1 [DDD01067448] |  |  |  |  |  |  |  |  |  | 6.73 | 1.43 | 88.3 | 1.18 | 95.9 | 3300 | 94.1 | 
CCN1CCCN(S(=O)(=O)c2cc3ccccc3o2)CC1 [DDD01067562] | 8.55 | 0.58 | 87.2 | 65 | 1.34 | 85.4 | 1460 | 73.1 |  |  |  |  |  |  |  |  | 
O=C(Nc1nccs1)C1CCCN1Cc1ccccn1 (centres unmarked) [DDD01068868] | 0.884 | 0.3 |  | 91.2 | 0.303 | 99.3 | 888 | 96.4 |  |  |  |  |  |  |  |  | 
Cc1cccc(OC(C)C(=O)NCC2(N(C)C)CCCC2)c1 (centres unmarked) [DDD01069466] | > 12.5 | 0.95 |  | 46.7 | 2.5 | 85.7 | 2140 | 64.8 |  |  |  |  |  |  |  |  | 
CN1CCN(CC(NCc2ccc(F)c(F)c2)c2ccccc2)CC1 (centres unmarked) [DDD01069631] | 5.37 | 0.58 | 89.5 | 78.3 | 0.913 | 94.6 | 4410 | 85.4 | 0.91 |  |  |  |  |  |  |  | 
CC(C)(C)C(=O)NCCNCc1ccc(Cl)c2cccnc12 [DDD01070293] | > 12.5 | 1.05 | 82 | 37.6 | 1.51 | 83.4 | 2250 | 64.4 |  |  |  |  |  |  |  |  | 
CCN1CCN(c2ccc(F)cc2C(C)NCc2ccccn2)CC1 (centres unmarked) [DDD01070491] | > 12.5 | 0.83 | 82.8 | 53 | 1.9 |  | > 4160 | 73.8 |  |  |  |  |  |  |  |  | 
CCN1CCN(c2ccc(F)cc2C(C)NCc2cscn2)CC1 (centres unmarked) [DDD01070576] |  |  |  |  |  |  |  |  |  | > 12.5 | 1.25 | 87.1 | 2.44 |  | 7180 | 78.2 | 47.9
Cc1cc(Cl)ccc1S(=O)(=O)NCC(C)N1CCN(C)CC1 (centres unmarked) [DDD01071406] |  |  |  |  |  |  |  |  |  | 6.35 | 1.66 | 87.3 | 4.93 | 86.6 | > 4160 |  | 56.6
COc1ccc(C(=O)NCCCOC(C)c2ccccc2)c(OC)c1 (centres unmarked) [DDD01071935] | 9.88 | 1.03 |  | 67.4 | 3.26 | 90.2 | > 4160 | 72.8 |  |  |  |  |  |  |  |  | 
OCCN1CCC(CNCc2ccc(Br)cc2)CC1 [DDD01072406] | 2.84 | 0.53 | 95.5 | 94.9 | 0.749 | 99.6 | 2010 | 92.7 |  |  |  |  |  |  |  |  | 
O=C(c1ccccc1)C1CCN(Cc2cc3c(cc2O)CCC3)CC1 [DDD01073482] | 1.73 | 0.6 | 93.1 | 94.9 | 0.607 | 99.4 | 2300 |  |  |  |  |  |  |  |  |  | 
CC(NCC1CCN(CCO)CC1)c1ccc(F)c(Cl)c1 (centres unmarked) [DDD01073649] | 3.46 | 1.04 | 87 | 94.4 | 0.802 | 99.5 | 1900 | 91.9 | 0.8 |  |  |  |  |  |  |  | 

Reference: publication PMC7155171, “Probing the Open Global Health Chemical Diversity Library for Multistage-Active Starting Points for Next-Generation Antimalarials” (ACS Infectious Diseases, 2020)
